# Laboratory results as given in article PMC9541320, “Machine Learning Guided Discovery of Non‐Hemolytic Membrane Disruptive Anticancer Peptides” (Chemmedchem, 2022).
# Where two headings read alike, the source gives them in different places. Where a SMILES comes first, the peptide text is derived from it. Where no end group is shown, it is not given here. [ ]: non-standard residue; d: D form.
# Assays:
# [1] = test system: HeLa cells; assay: Cell viability assay by AlamarBlue, HeLa cells; format: cell-based; conditions: 72 h incubation at 37 °C in DMEM high glucose medium with 10 % FBS; read-out: Toxicity IC50 HeLa
# Description: (§2) To measure potential ACP activity, we exposed HeLa cells to 50 μM of each peptide for 72 h and quantified remaining live cells with Alamar Blue. We performed full IC50 determination for active sequences under the same conditions and similarly profiled HEK293 cells as a model for non‐cancer cells.
# (§3) Cell Viability assay by AlamarBlue. […] HEK‐293 were seeded into well plates, pretreated with solution of poly‐L‐Lysine. The medium was removed and the compounds at increasing concentration were added into the wells. The cells were incubated for 72 h in 200 μL/well at 37 °C in corresponding medium in the presence of 5 % CO2. After incubation time the medium was removed and replaced by 100 μL/well of medium containing 10 % AlamarBlue. The cells were incubated for 3–5 h at 37 °C with 5 % CO2 in a humidified atmosphere. The fluorescence was then measured on a Tecan Infinite M1000 Pro plate reader at λex 560 nm and λem 590 nm. The value was normalized according to the untreated cells.
# [2] = test system: HEK293 cells; assay: Cell viability assay by AlamarBlue, HEK293 cells (model for non-cancer cells); format: cell-based; conditions: 72 h incubation at 37 °C in DMEM high glucose medium with 10 % FBS; read-out: Toxicity IC50 HEK 293
# Description: as §2, §3
# [3] = test system: human red blood cells (hRBC); assay: Hemolysis assay on human red blood cells; format: cell-based
# Excerpt: Synthesis and bioactivity testing. We prepared the 33 selected peptides, as well as the reference ACP LL‐III, by semi‐automated high‐temperature Fmoc solid‐phase peptide synthesis and obtained pure samples by preparative HPLC. All peptides were well‐behaved in terms of aqueous solubility, in line with the presence of two to seven cationic residues (lysine or arginine) in each sequence (Table 1). […]. We performed full IC50 determination for active sequences under the same conditions and similarly profiled HEK293 cells as a model for non‐cancer cells. Finally, we determined peptide concentrations causing 50 % hemolysis (HC50) on human red blood cells (hRBC) by serial 2‐fold dilution.
# Hemolysis assay. Compounds were subjected to a hemolysis assay to assess the hemolytic effect on human red blood cells (hRBCs). […]. Controls on each plate included a blank medium control (PBS 100 μL) and a hemolytic activity control (0.1 % Triton^TM X‐100). 100 μL of hRBC suspension was incubated with 100 μL of each sample in PBS in V‐shape 96‐well plate. […]. Hemolysis was measured by analyzing the absorbance of free hemoglobin leaked out of compromised in the supernatants at 540 nm with a plate reader (Tecan instrument Infinite M1000). The percentage of hemolysis at each concentration was detected and HC50 was determined.
# [4] = test system: Acinetobacter baumannii (ATCC19606); format: cell-based
# Description: (§1) […]. Minimal inhibitory concentration (MIC) determination. The minimal inhibitory concentration (MIC) was determined by using broth microdilution method. Antimicrobial activity was assayed against P. aeruginosa PAO1 (WT), Acinetobacter baumannii (ATCC19606). […]. The next day, 15 μL of MTT solution was added to each well of the plate, such a way that MIC was defined as the lowest concentration of the peptide that inhibited visible growth of the tested bacteria.
# [5] = test system: human red blood cells (hRBC); conditions: below 200 μM; cited from earlier work
# [6] = test system: P. aeruginosa PAO1 (WT); format: cell-based, Pseudomonas aeruginosa
# Description: as §1
# [7] = human red blood cells in 10 mM phosphate buffer saline, pH 7.4, 25 °C
# [8] = incubation 16–20 h at 37 °C in MH medium
Compound,IC50 [1] [µM],IC50 [2] [µM],"Hemolysis HC50 hRBC [3, 7] [µM]","MIC A. baumannii [4, 8] [µg/mL]",documented hemolysis [5],"MIC PAO1 [6, 8] [µg/mL]",Hemolysis HC50 hRBC ([3]; pH 7.4) [µM],MIC PAO1 ([6]; PAO1) [µg/mL],MIC A. baumannii ([4]; ATCC19606) [µg/mL]
"VNWKKILGKIIKVVK-NH2 [LL‐III, lasioglossin III]",6 ± 0.5,15 ± 3,>200,4,non‐hemolytic,,,,
anwkkwigkviklvk [DB1],6.2 ± 1.1,13.1 ± 2.8,,2,,4,,,
"C[C@@H](NC(=O)[C@H](N)Cc1ccccc1)C(=O)N[C@H](CCCCN)C(=O)N[C@H](CCCCN)C(=O)N[C@H](Cc1ccccc1)C(=O)N[C@H](Cc1ccccc1)C(=O)N[C@H](CCCCN)C(=O)N[C@H](CCCCN)C(=O)N[C@H](Cc1ccccc1)C(=O)N[C@H](C)C(=O)N[C@H](CCCCN)C(=O)N[C@H](Cc1ccccc1)C(=O)N[C@H](C)C(=O)N[C@H](Cc1ccccc1)C(=O)N[C@H](CCCCN)C(N)=O [DA1, fakkffkkfakfafk] (H-[dF][dA][dK][dK][dF][dF][dK][dK][dF][dA][dK][dF][dA][dF][dK]-NH2)",7.9 ± 0.3,15 ± 2.3,,,,,>200,4,4
"CC[C@@H](C)[C@@H](NC(=O)[C@@H](CCCCN)NC(=O)[C@@H](CCCCN)NC(=O)[C@@H](Cc1c[nH]c2ccccc12)NC(=O)[C@@H](CC(N)=O)NC(=O)[C@H](N)C(C)C)C(=O)N[C@H](CC(C)C)C(=O)NCC(=O)N[C@H](CCCCN)C(=O)N[C@@H](C(=O)N[C@@H](C(=O)N[C@H](CCCCN)C(=O)N[C@@H](C(=O)N[C@@H](C(=O)N[C@H](CCCCN)C(N)=O)C(C)C)C(C)C)[C@H](C)CC)[C@H](C)CC [DLL‐III, vnwkkilgkiikvvk] (H-[dV][dN][dW][dK][dK][dI][dL]G[dK][dI][dI][dK][dV][dV][dK]-NH2)",5 ± 0.7,14.5 ± 2,>200,2,,4,,,
